From patent US12678387B2, “Composition for alleviating hair loss or promoting hair growth” (LG HOUSEHOLD & HEALTH CARE LTD., priority 2020, dated 2026) come the findings set out here.

Test [1] deals with Human-derived dermal papilla cells (DPCs). The test is described as follows: Enhancement of mitochondrial activity of dermal papilla cells (JC-1 method). In kind it is cell-based. As to conditions: for Mitochondrial activity of dermal papilla cells (%): incubated for a day, percentage of the control group as 100; for Effect on mitochondrial activity of dermal papilla cells (in words): summary of Table 4. As to the method:
Human-derived dermal papilla cells (DPCs) were purchased from PromoCell. The DPCs were cultured in DMEM (Hyclone Inc., UT, USA) containing 5% fetal bovine serum (FBS; GIBCO, NY, USA), 100 units/mL penicillin and 100 μg/mL streptomycin under the condition of 37° C. and 5% CO2. The cultured DPCs were seeded onto a 96-well plate at 3,000 cells/well and then cultured for 24 hours under a 0.1% serum condition. […] After the incubation, the degree of cell proliferation was evaluated by the JC-1 method. The cell culture was treated and incubated with JC-1 at 1:100 for 1 hour. 1 hour later, the fluorescence of each well was measured at 590 nm and 530 nm. All the experiments were 3 times and the fluorescence intensity was averaged. The result was expressed as percentage of the control group as 100.

The test system is the same in test [2]. The test is described as follows: Enhancement of activity of dermal papilla cells (CCK-8 method). Format: cell-based. The following applies: for Activity of dermal papilla cells (%): incubated for a day, percentage of the control group as 100; for Effect on activity and proliferation of dermal papilla cells (in words): summary of Table 3. As to the method:
Human-derived dermal papilla cells (DPCs) were purchased from PromoCell. The DPCs were cultured in DMEM (Hyclone Inc., UT, USA) containing 5% fetal bovine serum (FBS; GIBCO, NY, USA), 100 units/mL penicillin and 100 μg/mL streptomycin under the condition of 37° C. and 5% CO2. The cultured DPCs were seeded onto a 96-well plate at 3,000 cells/well and then cultured for 24 hours under a 0.1% serum condition. […] After the incubation, the enhancement of cellular activity was evaluated by the CCK method. The cell culture was treated and incubated with CCK-8 at 1:10 for 1 hour. 1 hour later, the absorbance of each well was measured at 450 nm. All the experiments were 3 times and the absorbance was averaged. The result was expressed as percentage of the control group as 100.

The next test has as its system androgen receptor. The test can be described thus: Androgenic activity: MMTV-Luc transcriptional activation assay in 22Rv1 cells with DHT. Format: cell-based, human. As to conditions: for Inhibition of androgenic activity (%): 10 μg/mL together with 1 nM DHT, 24 hours; for Effect of inhibiting androgenic activity (in words): summary of Table 6. As to the method:
The stable cell line was maintained by subculturing using RPMI1640 and 10% fetal bovine serum (GIBCO BRL, Gaithersburg, MD, USA). For transcriptional activation assay, the cells were seeded in a 96-well plate, with 25,000 cells per well, while replacing the medium with phenol red-free RPMI1640 containing 5% charcoal-stripped fetal bovine serum. […] The cell culture was treated and incubated with CCK-8 at 1:10 for 2 hours. 2 hour later, the absorbance of each well was measured at 450 nm. All the experiments were 3 times and the absorbance was averaged.

Another test concerns Wnt/β-catenin signaling. The test is described as follows: Wnt/β-catenin luciferase reporter assay in Wnt Reporter HEK293A cells. Format: cell-based. The following applies: for Wnt signaling activity for activating hair follicles (%): untreated group 100%; for Wnt signaling activity (in words): summary of Table 5. From the text: In general, the Wnt/β-catenin signaling activated in the dermal papillae during transition from the […] to the anagen transition in the hair growth cycle begins as the hair starts to grow and occurs throughout the anagen phase. In the telogen and catagen phases, the Wnt/β-catenin signaling decreases or disappears, resulting in degeneration of hair follicles and shedding of hair. Therefore, it was investigated in the examples how much the momordin Ic, platycodin D2, polygalacin D or pseudoginsenoside RT5 of the present disclosure contributes to the amplification of Wnt/β-catenin signaling.
Wnt3a protein was used as a positive control group for amplifying Wnt/β-catenin signaling, and DMSO was used as a negative control group. After seeding Wnt Reporter HEK293A cells in a 96-well culture plate, with 3×10^4 cells per well, and then treating with the momordin Ic, platycodin D2, polygalacin D or pseudoginsenoside RT5 of the present disclosure as described in Table 5, reporter assay was conducted using a Promega's luciferase assay kit (E1960). The experiment was conducted according to the manufacturer's instructions and the activity of the Wnt/β-catenin promoter was measured using a luminometer (Victor; PerkinElmer, Waltham, Massachusetts, USA).
On the technique in general: A reporter such as luciferase makes a cellular process visible.

For the compound `CC(C)=C[C@@H]1CO[C@]23C[C@@]4(CO2)[C@@H](CC[C@@H]2[C@@]5(C)CC[C@H](O[C@H]6OC[C@H](O)[C@H](O[C@H]7O[C@H](COS(=O)(=O)O)[C@@H](O)[C@H](O)[C@H]7O)[C@H]6O[C@@H]6O[C@@H](CO)[C@H](O)[C@H]6O)C(C)(C)[C@@H]5CC[C@]24C)[C@H]3[C@@]1(C)O` [Bacopaside I, bacopaside I], the “Mitochondrial activity of dermal papilla cells (%)” value (from here on “Mitochondrial activity … (%)”) in test [1] (10 μg/mL) is 110%. In test [1], the “Effect on mitochondrial activity of dermal papilla cells (in words)” value (“Effect on mitochondrial activity” below) is “superior effect of enhancing the mitochondrial activity”. For the same compound, the “Activity of dermal papilla cells (%)” value in test [2] (10 μg/mL) is recorded as 133%. Further, the “Effect on activity and proliferation of dermal papilla cells (in words)” value (from here on “Effect on activity and proliferation”) in test [2] was “superior effect of enhancing the activity of dermal papilla cells”. Further, in the test on androgen receptor, the “Inhibition of androgenic activity (%)” value is reported as 6%.

`Nc1cc(N2CCCCC2)nc(N)[n+]1[O-]` [Minoxidil, 2,4-diamino-6-piperidinopyrimidine 3-oxide, reference compound]: the “Mitochondrial activity … (%)” value in test [1] (2 μg/mL) worked out at 129%. Moreover, the “Activity of dermal papilla cells (%)” value in test [2] (2 μg/mL) is on record as 121%. For the same compound, in the test on Wnt/β-catenin signaling (2 μg/mL), the “Wnt signaling activity for activating hair follicles (%)” value (shortened to “Wnt signaling activity … (%)”) is 82%.

Consider `CC(C)=CCC[C@](C)(O)[C@H]1CC[C@]2(C)[C@@H]1[C@H](O)C[C@@H]1[C@@]3(C)CC[C@H](O)C(C)(C)[C@@H]3[C@@H](O[C@@H]3O[C@H](CO)[C@@H](O)[C@H](O)[C@H]3O[C@@H]3OC[C@@H](O)[C@H](O)[C@H]3O)C[C@]12C` [Notoginsenoside R2, notoginsenoside R2], for which the “Mitochondrial activity … (%)” value in test [1] (10 μg/mL) is reported as 117%. Further, the “Effect on mitochondrial activity” value in test [1] was “superior effect of enhancing the mitochondrial activity”. Also, the “Activity of dermal papilla cells (%)” value in test [2] (10 μg/mL) was determined as 131%. In test [2], the “Effect on activity and proliferation” value was “superior effect of enhancing the activity of dermal papilla cells”. For the same compound, in the test with androgen receptor, the “Inhibition of androgenic activity (%)” value was found to be 29% and the “Effect of inhibiting androgenic activity (in words)” value was “superior effect of inhibiting androgenic activity”.

For `CC(C)C1=CC(=O)C(C)(C2C(O)CC3(C)C4CC=C5C(CCC(OC6OC(CO)C(O)C(O)C6OC6OC(C)C(O)C(O)C6O)C5(C)C)C4(C)C(=O)CC23C)O1` (stereo not drawn) [Picfeltarraenin IB, picfeltarraenin IB], the “Activity of dermal papilla cells (%)” value in test [2] (10 μg/mL) amounted to 139%. Further, in test [2], the “Effect on activity and proliferation” value was “superior effect of enhancing the activity of dermal papilla cells”.

With `C[C@@H]1O[C@@H](O[C@H]2[C@H](OC(=O)[C@]34CCC(C)(C)C[C@H]3C3=CC[C@@H]5[C@@]6(C)C[C@H](O)[C@H](O[C@@H]7O[C@H](CO)[C@@H](O)[C@H](O[C@@H]8O[C@H](CO)[C@@H](O)[C@H](O)[C@H]8O)[C@H]7O)C(CO)(CO)[C@@H]6CC[C@@]5(C)[C@]3(C)C[C@H]4O)OC[C@H](O)[C@@H]2O)[C@H](O)[C@H](O)[C@H]1O[C@@H]1OC[C@@H](O)[C@H](O[C@@H]2OC[C@](O)(CO)[C@H]2O)[C@H]1O` [Platycodin D2, platycodin D2], the “Activity of dermal papilla cells (%)” value in test [2] (10 μg/mL) is on record as 162%. The “Effect on activity and proliferation” value in test [2] is on record as “superior effect of enhancing the activity of dermal papilla cells”. In the test with androgen receptor, the “Inhibition of androgenic activity (%)” value was found to be 16% and the “Effect of inhibiting androgenic activity (in words)” value is on record as “superior effect of inhibiting androgenic activity”. Also, the “Wnt signaling activity … (%)” value with Wnt/β-catenin signaling (10 μg/mL) turned out to be 216%. Besides, the “Wnt signaling activity (in words)” value in the test with Wnt/β-catenin signaling is “superior Wnt signaling activity”.

As to `C[C@@H]1O[C@@H](O[C@H]2[C@H](OC(=O)[C@]34CCC(C)(C)C[C@H]3C3=CC[C@@H]5[C@@]6(C)C[C@H](O)[C@H](O[C@@H]7O[C@H](CO)[C@@H](O)[C@H](O)[C@H]7O)[C@@](C)(CO)[C@@H]6CC[C@@]5(C)[C@]3(C)C[C@H]4O)OC[C@H](O)[C@@H]2O)[C@H](O)[C@H](O)[C@H]1O[C@@H]1OC[C@@H](O)[C@H](O[C@@H]2OC[C@](O)(CO)[C@H]2O)[C@H]1O` [Polygalacin D, polygalacin D], the “Activity of dermal papilla cells (%)” value in test [2] (10 μg/mL) came to 164%. For the same compound, in test [2], the “Effect on activity and proliferation” value is on record as “superior effect of enhancing the activity of dermal papilla cells”. Moreover, in the test with androgen receptor, the “Inhibition of androgenic activity (%)” value is on record as 26% and the “Effect of inhibiting androgenic activity (in words)” value is reported as “superior effect of inhibiting androgenic activity”. The “Wnt signaling activity … (%)” value in the test on Wnt/β-catenin signaling (10 μg/mL) worked out at 293%. In the test on Wnt/β-catenin signaling, the “Wnt signaling activity (in words)” value is listed as “superior Wnt signaling activity”.

For the compound `C[C@@H]1O[C@@H](O[C@H]2[C@H](O[C@H]3[C@H](O[C@H]4CC[C@]5(C)[C@H]6CC=C7[C@@H]8CC(C)(C)CC[C@]8(C(=O)O)CC[C@@]7(C)[C@]6(C)CC[C@H]5C4(C)C)OC[C@H](O)[C@@H]3O)O[C@H](CO)[C@@H](O)[C@@H]2O)[C@H](O)[C@H](O)[C@H]1O` [Raddeanin A, raddeanin A], the “Activity of dermal papilla cells (%)” value in test [2] (10 μg/mL) came to 130%. For the same compound, the “Effect on activity and proliferation” value in test [2] is given as “superior effect of enhancing the activity of dermal papilla cells”. Also, the “Inhibition of androgenic activity (%)” value in the test with androgen receptor is 10%.

On to `CC(C)=CCC[C@](C)(O[C@@H]1O[C@H](CO)[C@@H](O)[C@H](O)[C@H]1O)[C@H]1CC[C@]2(C)[C@@H]1[C@H](O)C[C@@H]1[C@@]3(C)CC[C@H](O[C@@H]4O[C@H](CO)[C@@H](O)[C@H](O)[C@H]4O[C@@H]4O[C@H](CO)[C@@H](O)[C@H](O)[C@H]4O)C(C)(C)[C@@H]3[C@@H](O)C[C@]12C` [Vina-ginsenoside R4, vina-ginsenoside R4], for which the “Mitochondrial activity … (%)” value in test [1] (10 μg/mL) stood at 111%. Moreover, the “Effect on mitochondrial activity” value in test [1] is given as “superior effect of enhancing the mitochondrial activity”. The “Activity of dermal papilla cells (%)” value in test [2] (10 μg/mL) amounted to 137%. Also, the “Effect on activity and proliferation” value in test [2] is “superior effect of enhancing the activity of dermal papilla cells”. In addition, the “Inhibition of androgenic activity (%)” value in the test with androgen receptor worked out at 4%.

As for `C[C@@H]1CC[C@]2(C(=O)O)CC[C@]3(C)C(=CC[C@@H]4[C@@]5(C)CC[C@H](O[C@@H]6OC[C@H](O)[C@H](O)[C@H]6O)C(C)(C)[C@@H]5CC[C@]43C)[C@@H]2[C@]1(C)O` [Ziyuglycoside II, ziyuglycoside II], the “Mitochondrial activity … (%)” value in test [1] (10 μg/mL) is 105%. The “Effect on mitochondrial activity” value in test [1] was “superior effect of enhancing the mitochondrial activity”. Also, the “Activity of dermal papilla cells (%)” value in test [2] (10 μg/mL) is listed as 139%. In addition, the “Effect on activity and proliferation” value in test [2] is “superior effect of enhancing the activity of dermal papilla cells”.

For asiaticoside B, the “Mitochondrial activity … (%)” value in test [1] (10 μg/mL) was found to be 151%. Besides, the “Effect on mitochondrial activity” value in test [1] was “superior effect of enhancing the mitochondrial activity”. In test [2] (10 μg/mL), the “Activity of dermal papilla cells (%)” value was 131%. Moreover, in test [2], the “Effect on activity and proliferation” value is listed as “superior effect of enhancing the activity of dermal papilla cells”. In the test on androgen receptor, the “Inhibition of androgenic activity (%)” value is listed as 6%.
